Assay results: ChEMBL document CHEMBL1201862, “PubChem BioAssay data set” (2004)
Calls of active or inactive are those of the source.

How the values were obtained:
[1] = inhibitors of firefly luciferase expression or activity, dose response, H4 neuroglioma cells, luminescence (AID 1990); assay type: functional, cell-based
[2] = A2780 ovarian cancer cell cytotoxicity, dose response, cytotoxicity control, plate reader, dry powder samples (AID 743046); assay type: functional, cell-based
[3] = cytotoxicity dependent on PAX8, dose response, cell-based, plate reader, dry powder (AID 743049); assay type: functional
[4] = cytotoxicity in COV434 cells, dose response, cytotoxicity control for PAX8 inhibitor project, cell-based, plate reader, dry powder, SA7 (AID 743145); assay type: functional
[5] = cytotoxicity in OV-90 ovarian cancer cells, dose response, PAX8 inhibitor project, cell-based, plate reader, dry powder, SA8 (AID 743149); assay type: functional
BJ [6] = experiment: cytotoxicity toward BJ-TERT fibroblasts, dose response, cell-based, RAS-independent, luminescence (AID 1933); assay type: functional; settings: Homo sapiens
[7] = cytotoxicity in OVCAR4 cells, dose response, cytotoxicity control for PAX8 inhibitor project, cell-based, plate reader, dry powder, SA11 (AID 743150); assay type: functional; settings: OVCAR-4
[8] = PAX2 cell-based inhibition, dose response, selectivity assay for PAX8 inhibitor project, plate reader, dry powder samples (AID 743048); assay type: functional;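 also: HEK293 cells carrying a WT1 promoter luciferase reporter driven by expressed Pax2; potency is for inhibition of Pax2 driven reporter signal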
[9] = inhibitors of SNCA 5'UTR-driven translation, confirmation, luminescence, H4 neuroglioblastoma cells, dose confirmation (AID 2454); assay type: functional, cell-based;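 also: H4 neuroglioblastoma cells carrying an alpha-synuclein 5'UTR luciferase reporter; potency for inhibition of the luciferase signal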
[10] = inhibitors of SNCA 5'UTR-driven reporter translation, confirmation, H4 neuroglioma cells, luminescence (AID 1988); assay type: functional, cell-based
BJ [11] = experiment: cytotoxicity toward Ras-transformed BJeLR fibroblasts, dose response, cell-based, alamar blue fluorescence, cherrypicked samples (AID 2631); assay type: functional; settings: Homo sapiens;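 also: confirmatory dose-response assay in RAS-dependent BJ fibroblasts engineered with TERT, LT and ST, with cytotoxicity read by fluorescence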
[12] = PAX5 activity inhibitors, dose response, selectivity assay for PAX8 inhibitor project, cell-based, plate reader, dry powder samples (AID 743047); assay type: functional;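 also: HEK293 cells carrying a Pax5 driven CD19 promoter luciferase reporter; potency of inhibitors that lower reporter luminescence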
[13] = IGROV1 ovarian cancer cell cytotoxicity, dose response, PAX8 inhibitor project, plate reader, dry powder samples (AID 743043); assay type: functional, cell-based; settings: IGROV-1
[14] = cytotoxicity toward DRD oncogenic fibroblasts, dose response, cell-based, non-viral oncogenic, luminescence (AID 1934); assay type: functional; settings: Homo sapiens
[15] = Luminescence Cell-Based Dose Response HTS to Identify Inhibitors of 5'UTR Stem-Loop Driven Prion Protein mRNA Translation in H4 Neuroglioblastoma Cells. [Related pubchem assays: 1827 (Project Summary), 1813 (Primary HTS)]; assay type: functional
Paired box protein Pax-8 = Paired box protein Pax-8 (Homo sapiens, UniProt Q06710); experiment: inhibitors of PAX8-driven TPO luciferase reporter, dose response, RMG-I cells, cherry-pick (AID 687027); assay type: functional, cell-based;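 also: luciferase reporter driven by Pax8 target thyroperoxidase promoter measured by SteadyGlo luminescence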
[16] = IOSE-T80 ovarian epithelial cell cytotoxicity, dose response, cytotoxicity control for PAX8 inhibitor project, plate reader, dry powder samples (AID 743045); assay type: functional, cell-based
cells [17] = assay type: functional, cell-based
BJ [18] = experiment: cells; assay type: functional, cell-based; settings: Homo sapiens
[19] = NIH:OVCAR-3 ovarian cancer cell cytotoxicity, dose response, PAX8 inhibitor project, plate reader, dry powder samples (AID 743044); assay type: functional, cell-based
[20] = luciferase reporter signal reduction – luminescence, H4-C neuroglioblastoma cells, dose response (AID 2458); assay type: functional, cell-based;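 also: H4 neuroglioblastoma cells stably carrying a luciferase reporter gene fusion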
[21] = cytotoxicity in COV362 ovarian cancer cells, dose response, cytotoxicity control for PAX8 inhibitor project, cell-based, plate reader, dry powder, SA12 (AID 743144); assay type: functional
Transthyretin = Transthyretin (Homo sapiens, UniProt P02766); experiment: Luminescence-based cell-based high throughput dose response assay to identify activators of Transthyretin (TTR) transcription.; assay type: functional
[22] = P. falciparum late gametocyte killing, dose response, luminescence (AID 1117278); assay type: functional, cell-based;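 also: gametocytes exposed to compound for 24 hours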
[23] = Jurkat T cell cytotoxicity, dose response, cytotoxicity control for P. falciparum gametocyte viability project, luminescence (AID 1117277); assay type: functional, cell-based;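 also: potency reflects loss of cellular ATP meaning fewer viable cells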
Vero = Vero cell cytotoxicity, cytotoxicity control for flavivirus capping enzyme inhibitors (AID 588742); assay type: functional; settings: Chlorocebus sabaeus
[24] = target: Glutathione-S-transferase (Schistosoma japonicum, UniProt Q26513); experiment: biotin-GST/anti-GST TR-FRET signal inhibitors, dose response, artefact control for Vif-APOBEC3G degradation inhibitor project, biochemical (AID 1117362); assay type: functional
[25] = Artemis endonuclease inhibitor potency, dose response, biochemical, fluorescence intensity (AID 720701); assay type: functional;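 also: Artemis endonuclease enzyme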
[26] = inhibitors of intracellular T. cruzi replication, confirmation, NIH3T3 host cells, beta-gal luminescence (AID 2044); assay type: functional, cell-based;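 also: intracellular parasites grown in NIH/3T3 mouse fibroblasts as host cells; luminescent beta-galactosidase reporter signal from transgenic T. cruzi replicating inside host cells; inhibitors lower the luminescence signal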
[27] = cytotoxicity toward NIH3T3 fibroblasts, dose response, counter-screen, cell-based, ATP luminescence, mouse fibroblasts (AID 2010); assay type: functional;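 also: cells exposed to compound for about 90 hours before reading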
[28] = target: E3 ubiquitin-protein ligase Mdm2 (Homo sapiens, UniProt Q00987); experiment: enhancers of MDM2-luciferase reporter signal, concentration-effect titration, project on inhibitors of MDM2 ubiquitin ligase, cellular assay, luminescent readout, 384-well plate format (AID 1394); assay type: functional;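 also: MDM2 E3 inhibitors raise luminescence so EC50 is for signal enhancement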
cells [29] = assay type: functional, cell-based; remark: listed apart in the source
[30] = target: T1, Trace amine-associated receptor 1 (Homo sapiens, UniProt Q96RJ0); experiment: Counterscreen for agonists of the human trace amine associated receptor 1 (hTAAR1): Fluorescence-based cell-based high throughput dose response assay to identify hTAAR1 agonist that also desensitize TAAR1 receptor response.; assay type: functional
T1 sequence (Q96RJ0 whole entry): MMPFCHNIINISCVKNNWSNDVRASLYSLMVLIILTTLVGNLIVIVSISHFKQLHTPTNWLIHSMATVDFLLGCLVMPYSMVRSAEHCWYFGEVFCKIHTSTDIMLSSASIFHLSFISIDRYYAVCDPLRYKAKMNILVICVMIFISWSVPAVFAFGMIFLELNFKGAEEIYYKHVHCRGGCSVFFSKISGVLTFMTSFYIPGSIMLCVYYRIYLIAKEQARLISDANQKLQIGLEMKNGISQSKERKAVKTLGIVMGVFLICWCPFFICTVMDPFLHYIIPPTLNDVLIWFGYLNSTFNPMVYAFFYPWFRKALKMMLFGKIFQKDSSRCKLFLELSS

cells [31] = assay type: functional, cell-based; remark: listed apart in the source
[32] = target: T1, Trace amine-associated receptor 1; experiment: Fluorescence-based cell-based high throughput dose response assay to identify agonists of the human trace amine associated receptor 1 (TAAR1).; assay type: functional
[33] = target: T2, Mannose-6-phosphate isomerase (Homo sapiens, UniProt P34949); experiment: human PMI inhibitors, high substrate, primary screen, biochemical, fluorescence intensity, high mannose 6-phosphate (AID 1220)
T2 sequence (P34949 whole entry): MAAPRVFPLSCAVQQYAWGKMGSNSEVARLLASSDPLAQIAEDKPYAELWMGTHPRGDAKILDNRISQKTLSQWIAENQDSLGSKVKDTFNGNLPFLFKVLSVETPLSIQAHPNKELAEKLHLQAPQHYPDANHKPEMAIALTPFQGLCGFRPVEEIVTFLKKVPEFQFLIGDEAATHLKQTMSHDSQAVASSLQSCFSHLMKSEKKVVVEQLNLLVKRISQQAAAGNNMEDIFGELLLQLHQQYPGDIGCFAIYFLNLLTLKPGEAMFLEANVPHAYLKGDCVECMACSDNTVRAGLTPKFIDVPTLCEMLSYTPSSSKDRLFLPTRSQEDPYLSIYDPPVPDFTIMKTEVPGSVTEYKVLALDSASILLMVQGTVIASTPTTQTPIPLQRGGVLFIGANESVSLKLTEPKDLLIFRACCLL

Sequence of Glutathione-S-transferase (Q26513 whole entry): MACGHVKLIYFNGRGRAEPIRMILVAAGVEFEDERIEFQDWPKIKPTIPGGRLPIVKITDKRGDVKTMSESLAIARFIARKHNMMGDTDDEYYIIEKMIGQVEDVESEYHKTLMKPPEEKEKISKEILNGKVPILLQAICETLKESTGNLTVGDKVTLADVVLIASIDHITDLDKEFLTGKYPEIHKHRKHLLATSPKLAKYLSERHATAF
Sequence of E3 ubiquitin-protein ligase Mdm2 (Q00987 whole entry): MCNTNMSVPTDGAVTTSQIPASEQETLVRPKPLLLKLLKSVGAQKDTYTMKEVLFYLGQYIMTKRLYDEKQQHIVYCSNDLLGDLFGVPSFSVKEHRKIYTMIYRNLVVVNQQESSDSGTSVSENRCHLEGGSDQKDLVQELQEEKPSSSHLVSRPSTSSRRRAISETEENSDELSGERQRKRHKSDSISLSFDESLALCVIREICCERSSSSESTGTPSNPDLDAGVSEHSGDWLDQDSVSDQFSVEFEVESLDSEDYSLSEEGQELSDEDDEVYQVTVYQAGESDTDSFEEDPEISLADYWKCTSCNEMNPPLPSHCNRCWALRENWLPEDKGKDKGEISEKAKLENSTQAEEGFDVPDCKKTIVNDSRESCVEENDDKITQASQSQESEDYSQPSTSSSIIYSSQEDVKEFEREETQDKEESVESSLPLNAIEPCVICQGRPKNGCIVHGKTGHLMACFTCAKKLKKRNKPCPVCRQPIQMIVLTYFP
Sequence of Paired box protein Pax-8 (Q06710 whole entry): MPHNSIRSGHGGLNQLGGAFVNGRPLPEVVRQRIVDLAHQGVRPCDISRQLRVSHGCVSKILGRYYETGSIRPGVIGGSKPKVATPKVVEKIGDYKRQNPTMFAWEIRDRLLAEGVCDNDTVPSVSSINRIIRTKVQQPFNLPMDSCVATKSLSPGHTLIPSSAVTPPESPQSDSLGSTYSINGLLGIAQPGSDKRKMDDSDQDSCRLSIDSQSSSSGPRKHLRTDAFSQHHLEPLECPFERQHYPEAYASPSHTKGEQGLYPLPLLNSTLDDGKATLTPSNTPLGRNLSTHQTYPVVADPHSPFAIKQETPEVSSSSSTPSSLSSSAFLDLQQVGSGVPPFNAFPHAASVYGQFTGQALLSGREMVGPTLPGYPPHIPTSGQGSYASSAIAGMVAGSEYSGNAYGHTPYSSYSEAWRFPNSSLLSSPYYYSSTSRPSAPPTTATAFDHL

For `Cc1cccc(C)c1NS(=O)(=O)c1ccc(-c2cnc(C3CC3)o2)cc1`, the EC50 [1] was < 0.1 µM (active), the AC50 [2] was 2.06 µM (active) and the AC50 [3] was 5.36 µM (active). The AC50 [4] was 0.329 µM (active), the AC50 [5] was 0.973 µM (active) and the EC50 (BJ [6]) was 0.158 µM (active). For the same compound, the AC50 [7] was 0.366 µM (active), the AC50 [8] was 22.4 µM (active) and the EC50 [9] was 0.208 µM (active). For the same compound, the EC50 [10] was < 0.1 µM (active), the EC50 (BJ [11]) was < 0.104 µM (active) and the AC50 [12] was 4.58 µM (active). The AC50 [13] was 5.04 µM (active), the EC50 [14] was 60.4 µM (inconclusive) and the EC50 [15] was > 120 µM (not active). The AC50 (Paired box protein Pax-8) was 1.74 µM (active), the AC50 [16] was 0.651 µM (active) and the EC50 (cells [17]) was 0.229 µM (active). For the same compound, the EC50 (BJ [18]) was 0.751 µM (inconclusive), the AC50 [19] was 12.1 µM (active) and the EC50 [20] was 0.113 µM (active). The AC50 [21] was 0.401 µM (active).
For `Cn1cc(C2CC(c3ccccc3)=NN2C(=O)c2ccccc2)c2ccccc21` (stereo unspecified), the EC50 (Transthyretin) was > 167 µM (inactive).
For `OCC1(Cc2ccccc2)CCN(Cc2cnc(-c3ccc(Cl)cc3)nc2)CC1`, the IC50 [22] was > 109 µM (inactive) and the IC50 [23] was > 83.3 µM (inactive).
In the case of `Cc1nn(-c2ccccn2)c2c1C(=O)C(Br)CC2` (stereo unspecified), the CC50 (Vero) is reported as > 40 µM (active) and the IC50 [24] is reported as 65.6 µM (active).
For `CCOC(=O)c1c(NC(=O)CSc2n[nH]c3c4ccccc4nc-3n2)sc2c1CCN(C)C2`, the IC50 [25] was 10 µM (active), the EC50 [26] was 0.161 µM (active) and the EC50 [27] was > 60 µM (not active).
For `O=[N+]([O-])c1ccc2c(c1NCCc1ccccc1)=NC1(CCCCC1)[N+]=2[O-]`, the EC50 [28] was 393 µM (not active), the IC50 (cells [29]) was > 29.9 µM (inactive) and the IC50 [30] was 8.86 µM (active). For the same compound, the EC50 (cells [31]) was > 29.9 µM (inactive), the EC50 [32] was 3.09 µM (active) and the IC50 [33] was > 50 µM (not active).
